Columns and labels:
Assay in all cases: KinomeScan profiling
Assay type in all cases: binding
ERBB2 = ERBB2 (Homo sapiens, UniProt P04626); conditions: ERBB2, 1 μM; read-out: % control
Summary of the method: (§1)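 Luminescence (RLU) was converted to percent of control, with DMSO set as 100% and a reference compound as 0%. Test compounds were run at 1 μM against 468 kinases. Kinases showing below 35% of control were scored as bound.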

PIK3CA(C420R) = target: T1, PIK3CA(C420R) (Homo sapiens, UniProt P42336, C420R); conditions: read-out: % control
T1 construct: purchased KinomeScan® (panel service)
Summary of the method: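 First, compounds in DMSO are added at 1 μM to each of 468 kinase assays. Next, RLU signals are normalised between positive control (0%) and DMSO (100%). Finally, kinases under 35% are flagged active.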

FRK = FRK (Homo sapiens, UniProt P42685); conditions: read-out: % control
Summary of the method: as §1

NEK9 = target: T2, NEK9 (Homo sapiens, UniProt Q8TD19); conditions: NEK9, 1 μM; read-out: % control
T2 sequence (Q8TD19 1-979): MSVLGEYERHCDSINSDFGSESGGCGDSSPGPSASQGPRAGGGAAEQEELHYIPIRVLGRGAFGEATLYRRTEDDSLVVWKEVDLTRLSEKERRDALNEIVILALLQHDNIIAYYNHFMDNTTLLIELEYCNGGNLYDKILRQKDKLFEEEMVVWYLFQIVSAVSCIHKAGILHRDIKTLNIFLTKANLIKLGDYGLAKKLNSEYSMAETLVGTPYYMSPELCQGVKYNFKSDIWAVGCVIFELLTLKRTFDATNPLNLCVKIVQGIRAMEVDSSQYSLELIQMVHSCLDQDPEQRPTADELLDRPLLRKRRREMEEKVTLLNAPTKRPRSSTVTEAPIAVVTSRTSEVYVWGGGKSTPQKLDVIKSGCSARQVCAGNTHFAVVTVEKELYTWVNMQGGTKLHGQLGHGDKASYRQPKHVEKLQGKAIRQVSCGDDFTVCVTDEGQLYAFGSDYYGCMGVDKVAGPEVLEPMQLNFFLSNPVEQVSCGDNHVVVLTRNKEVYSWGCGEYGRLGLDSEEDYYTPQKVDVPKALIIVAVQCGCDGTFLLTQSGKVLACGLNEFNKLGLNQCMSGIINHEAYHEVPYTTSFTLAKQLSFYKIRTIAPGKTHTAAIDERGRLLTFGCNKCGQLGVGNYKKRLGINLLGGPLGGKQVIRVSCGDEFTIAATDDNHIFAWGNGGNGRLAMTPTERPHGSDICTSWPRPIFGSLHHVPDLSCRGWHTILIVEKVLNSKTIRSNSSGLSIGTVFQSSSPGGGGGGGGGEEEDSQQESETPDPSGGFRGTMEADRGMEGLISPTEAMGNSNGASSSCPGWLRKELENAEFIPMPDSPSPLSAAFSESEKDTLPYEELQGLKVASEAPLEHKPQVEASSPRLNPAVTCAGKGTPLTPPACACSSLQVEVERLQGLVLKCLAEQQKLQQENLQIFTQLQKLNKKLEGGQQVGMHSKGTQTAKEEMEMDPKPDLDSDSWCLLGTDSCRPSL
Summary of the method: as §1

GSK3B = GSK3B (Homo sapiens, UniProt P49841); conditions: read-out: % control
Summary of the method: as §1

SgK110 = target: T3, SgK110 (Homo sapiens, UniProt P0C264); conditions: SgK110, 1 μM; read-out: % control
T3 construct: purchased KinomeScan® (panel service)
T3 sequence (P0C264 1-359): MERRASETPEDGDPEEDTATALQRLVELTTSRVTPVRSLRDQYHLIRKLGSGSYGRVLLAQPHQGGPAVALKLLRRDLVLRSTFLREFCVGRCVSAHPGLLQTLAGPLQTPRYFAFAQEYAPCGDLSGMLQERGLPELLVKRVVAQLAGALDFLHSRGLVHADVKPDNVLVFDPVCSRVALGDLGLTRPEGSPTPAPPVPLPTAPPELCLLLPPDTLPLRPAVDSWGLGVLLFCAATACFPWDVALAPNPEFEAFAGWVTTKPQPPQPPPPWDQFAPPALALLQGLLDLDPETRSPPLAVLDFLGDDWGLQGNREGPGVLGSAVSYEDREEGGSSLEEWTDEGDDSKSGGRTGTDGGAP
Summary of the method: as §1

KIT(A829P) = target: T4, KIT(A829P) (Homo sapiens, UniProt P10721, A829P); conditions: read-out: % control
T4 construct: purchased KinomeScan®
Summary of the method: as §1

T1 sequence (P42336 whole entry C420R): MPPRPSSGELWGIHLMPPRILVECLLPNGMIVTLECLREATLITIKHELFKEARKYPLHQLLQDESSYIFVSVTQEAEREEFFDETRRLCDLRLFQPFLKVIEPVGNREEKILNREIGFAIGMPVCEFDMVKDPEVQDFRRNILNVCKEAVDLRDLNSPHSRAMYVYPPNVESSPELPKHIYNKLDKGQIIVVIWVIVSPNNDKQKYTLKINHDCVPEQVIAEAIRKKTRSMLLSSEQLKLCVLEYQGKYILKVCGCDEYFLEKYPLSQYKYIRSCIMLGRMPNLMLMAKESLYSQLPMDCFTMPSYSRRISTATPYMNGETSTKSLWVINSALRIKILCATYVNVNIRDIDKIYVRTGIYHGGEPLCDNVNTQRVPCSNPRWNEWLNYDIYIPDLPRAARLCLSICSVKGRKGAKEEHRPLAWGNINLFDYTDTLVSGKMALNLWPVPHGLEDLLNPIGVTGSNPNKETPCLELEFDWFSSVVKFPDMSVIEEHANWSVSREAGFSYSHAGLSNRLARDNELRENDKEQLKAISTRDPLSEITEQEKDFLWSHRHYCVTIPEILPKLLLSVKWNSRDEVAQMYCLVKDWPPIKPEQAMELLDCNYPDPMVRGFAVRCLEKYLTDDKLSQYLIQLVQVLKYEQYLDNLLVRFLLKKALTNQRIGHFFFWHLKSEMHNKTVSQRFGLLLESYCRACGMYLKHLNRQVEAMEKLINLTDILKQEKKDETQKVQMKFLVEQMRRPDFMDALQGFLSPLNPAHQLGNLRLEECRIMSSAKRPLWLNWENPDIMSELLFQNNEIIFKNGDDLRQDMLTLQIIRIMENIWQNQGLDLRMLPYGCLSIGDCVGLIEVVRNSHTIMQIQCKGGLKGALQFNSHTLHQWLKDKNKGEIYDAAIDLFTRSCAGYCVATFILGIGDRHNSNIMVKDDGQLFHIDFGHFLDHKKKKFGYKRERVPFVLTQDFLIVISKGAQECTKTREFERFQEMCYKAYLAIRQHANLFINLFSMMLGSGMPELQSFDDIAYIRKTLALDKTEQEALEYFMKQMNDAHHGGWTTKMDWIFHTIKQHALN
GSK3B, sequence (P49841 whole entry): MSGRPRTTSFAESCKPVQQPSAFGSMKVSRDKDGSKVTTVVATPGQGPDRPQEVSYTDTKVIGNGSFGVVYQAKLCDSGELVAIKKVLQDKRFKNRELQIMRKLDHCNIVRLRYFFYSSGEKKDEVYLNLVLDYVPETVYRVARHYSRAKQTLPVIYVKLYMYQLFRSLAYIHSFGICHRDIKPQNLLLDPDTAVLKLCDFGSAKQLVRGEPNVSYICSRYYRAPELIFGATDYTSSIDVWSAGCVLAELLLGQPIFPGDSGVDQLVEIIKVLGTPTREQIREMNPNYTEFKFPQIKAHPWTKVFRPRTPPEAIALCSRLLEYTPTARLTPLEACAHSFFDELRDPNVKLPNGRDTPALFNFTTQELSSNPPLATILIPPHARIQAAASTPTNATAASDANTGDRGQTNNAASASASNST
T4 sequence (P10721 26-976 A829P): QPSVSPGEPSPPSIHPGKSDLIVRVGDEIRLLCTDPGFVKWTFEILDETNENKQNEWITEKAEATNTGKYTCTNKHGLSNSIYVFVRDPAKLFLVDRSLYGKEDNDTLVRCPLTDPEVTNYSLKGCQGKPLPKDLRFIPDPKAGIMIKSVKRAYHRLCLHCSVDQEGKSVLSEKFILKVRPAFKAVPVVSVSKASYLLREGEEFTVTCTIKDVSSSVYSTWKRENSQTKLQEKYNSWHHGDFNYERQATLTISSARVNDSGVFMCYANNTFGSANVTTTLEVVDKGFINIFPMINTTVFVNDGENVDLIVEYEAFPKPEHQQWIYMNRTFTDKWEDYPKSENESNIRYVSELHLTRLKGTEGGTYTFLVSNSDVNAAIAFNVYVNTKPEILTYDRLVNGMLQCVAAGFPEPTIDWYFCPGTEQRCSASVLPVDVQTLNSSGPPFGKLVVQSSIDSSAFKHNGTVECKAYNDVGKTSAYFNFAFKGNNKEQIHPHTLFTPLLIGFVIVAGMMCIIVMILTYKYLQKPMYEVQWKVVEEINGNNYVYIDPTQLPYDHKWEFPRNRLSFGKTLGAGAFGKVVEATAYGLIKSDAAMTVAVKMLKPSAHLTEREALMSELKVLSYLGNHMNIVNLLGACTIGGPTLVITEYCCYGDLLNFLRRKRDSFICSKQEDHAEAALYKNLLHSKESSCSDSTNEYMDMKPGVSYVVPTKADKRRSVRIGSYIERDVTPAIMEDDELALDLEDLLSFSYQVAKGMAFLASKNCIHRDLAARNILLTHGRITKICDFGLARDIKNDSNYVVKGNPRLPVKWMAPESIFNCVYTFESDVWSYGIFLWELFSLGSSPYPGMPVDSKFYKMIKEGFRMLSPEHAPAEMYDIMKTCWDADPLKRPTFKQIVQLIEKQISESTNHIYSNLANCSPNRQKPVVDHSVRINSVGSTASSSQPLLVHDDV
ERBB2, sequence (P04626 23-1255): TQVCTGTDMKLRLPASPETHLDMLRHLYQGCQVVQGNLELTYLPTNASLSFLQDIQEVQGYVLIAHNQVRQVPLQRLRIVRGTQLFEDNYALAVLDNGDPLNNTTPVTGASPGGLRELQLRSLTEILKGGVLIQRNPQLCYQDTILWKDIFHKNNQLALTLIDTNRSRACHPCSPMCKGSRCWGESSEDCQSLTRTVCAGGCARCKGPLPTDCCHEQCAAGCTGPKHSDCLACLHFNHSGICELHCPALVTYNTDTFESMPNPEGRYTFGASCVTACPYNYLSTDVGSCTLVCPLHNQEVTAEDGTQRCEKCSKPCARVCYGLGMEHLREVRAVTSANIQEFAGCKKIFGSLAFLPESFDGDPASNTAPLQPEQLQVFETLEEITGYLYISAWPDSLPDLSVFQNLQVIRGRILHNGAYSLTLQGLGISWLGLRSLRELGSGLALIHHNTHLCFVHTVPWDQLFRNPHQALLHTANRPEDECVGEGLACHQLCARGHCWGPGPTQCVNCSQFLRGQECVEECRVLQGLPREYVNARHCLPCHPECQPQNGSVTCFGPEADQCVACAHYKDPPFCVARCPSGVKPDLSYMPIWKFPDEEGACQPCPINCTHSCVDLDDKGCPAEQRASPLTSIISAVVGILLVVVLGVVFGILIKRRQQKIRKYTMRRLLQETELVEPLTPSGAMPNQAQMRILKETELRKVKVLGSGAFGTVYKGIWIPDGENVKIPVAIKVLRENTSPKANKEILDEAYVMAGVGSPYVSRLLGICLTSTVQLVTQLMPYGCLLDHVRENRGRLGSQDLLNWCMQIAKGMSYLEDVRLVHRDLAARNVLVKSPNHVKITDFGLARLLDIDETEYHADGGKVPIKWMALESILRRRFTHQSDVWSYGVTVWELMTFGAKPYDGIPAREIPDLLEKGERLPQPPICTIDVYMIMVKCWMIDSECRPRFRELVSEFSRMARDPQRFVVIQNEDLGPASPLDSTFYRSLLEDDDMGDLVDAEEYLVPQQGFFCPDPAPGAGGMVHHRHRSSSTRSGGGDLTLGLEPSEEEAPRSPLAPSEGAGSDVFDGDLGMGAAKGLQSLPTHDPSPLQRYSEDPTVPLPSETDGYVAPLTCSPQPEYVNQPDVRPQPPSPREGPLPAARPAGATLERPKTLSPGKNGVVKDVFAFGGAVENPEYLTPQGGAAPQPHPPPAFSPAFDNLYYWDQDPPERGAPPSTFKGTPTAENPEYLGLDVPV
FRK, sequence (P42685 whole entry): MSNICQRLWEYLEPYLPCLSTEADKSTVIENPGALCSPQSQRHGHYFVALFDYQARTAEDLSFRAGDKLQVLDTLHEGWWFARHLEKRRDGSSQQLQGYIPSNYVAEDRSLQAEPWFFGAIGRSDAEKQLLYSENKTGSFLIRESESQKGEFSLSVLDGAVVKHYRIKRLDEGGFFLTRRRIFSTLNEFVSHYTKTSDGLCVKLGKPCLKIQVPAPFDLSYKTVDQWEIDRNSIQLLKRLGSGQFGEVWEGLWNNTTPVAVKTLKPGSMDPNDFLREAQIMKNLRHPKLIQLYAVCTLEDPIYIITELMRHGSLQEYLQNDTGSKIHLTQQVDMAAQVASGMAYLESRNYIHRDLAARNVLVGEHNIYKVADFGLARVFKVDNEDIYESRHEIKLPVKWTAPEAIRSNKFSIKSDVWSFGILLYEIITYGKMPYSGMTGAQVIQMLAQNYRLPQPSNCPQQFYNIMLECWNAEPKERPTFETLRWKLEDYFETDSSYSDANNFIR

| Structure (SMILES) | remaining binding at 1 µM (ERBB2) | remaining binding at 1 µM (PIK3CA(C420R)) | remaining binding at 1 µM (FRK) | remaining binding at 1 µM (NEK9) | remaining binding at 1 µM (GSK3B) | remaining binding at 1 µM (SgK110) | remaining binding at 1 µM (KIT(A829P)) |
| --- | --- | --- | --- | --- | --- | --- | --- |
| O=C(c1ccc(-c2cnc3[nH]cc(Cl)c3c2NC2CCCC2)cc1)N1CCC(N2CCOCC2)CC1 [Compound 101, (4-(3-chloro-4-(cyclopentylamino)-1H-pyrrolo[2,3-b]pyridin-5-yl)phenyl)(4-morpholinopiperidin-1-yl)methanone] | 92% | 100% | 100% | 98% | 100% | 100% | 100% |
| CNc1c(-c2cnn([C@H]3CCN(C(C)=O)C[C@@H]3F)c2)cnc2[nH]cc(Cl)c12 [Compound 77, 1-((3S,4S)-4-(4-(3-chloro-4-(methylamino)-1H-pyrrolo[2,3-b]pyridin-5-yl)-1H-pyrazol-1-yl)-3-fluoropiperidin-1-yl)ethan-1-one] | 63% | 75% | 100% | 100% | 69% | 100% | 46% |
| CNc1c(-c2ccc(C(=O)N3CCC(N4CCOCC4)CC3)cc2)cnc2[nH]cc(Cl)c12 [Compound 96, (4-(3-chloro-4-(methylamino)-1H-pyrrolo[2,3-b]pyridin-5-yl)phenyl)(4-morpholinopiperidin-1-yl)methanone] | 80% | 75% | 84% | 100% | 63% | 100% | 53% |

Reference: patent publication US12275731B2, “Azaindole inhibitors of wild-type and mutant forms of LRRK2” (DANA-FARBER CANCER INSTITUTE, INC., priority 2018, dated 2025)
